Reference: US20020035100A1, “Alkyl ether modified polycyclic compounds having a terminal phenol and uses for protection of cells” (priority 2000, published 2002)
Entries after “also recorded” stand apart in the source; their conditions may differ.

Columns and labels:
ERα = target: T1, ERα (Homo sapiens, UniProt P03372); experiment: Estrogen receptor binding, displacement of radiolabeled 17β-estradiol; design: dose or concentration left out as unconfirmed; conditions: human cloned ERα, 17β-estradiol assigned 1; <0.01 = no evidence of binding
T1 sequence (P03372 1-595): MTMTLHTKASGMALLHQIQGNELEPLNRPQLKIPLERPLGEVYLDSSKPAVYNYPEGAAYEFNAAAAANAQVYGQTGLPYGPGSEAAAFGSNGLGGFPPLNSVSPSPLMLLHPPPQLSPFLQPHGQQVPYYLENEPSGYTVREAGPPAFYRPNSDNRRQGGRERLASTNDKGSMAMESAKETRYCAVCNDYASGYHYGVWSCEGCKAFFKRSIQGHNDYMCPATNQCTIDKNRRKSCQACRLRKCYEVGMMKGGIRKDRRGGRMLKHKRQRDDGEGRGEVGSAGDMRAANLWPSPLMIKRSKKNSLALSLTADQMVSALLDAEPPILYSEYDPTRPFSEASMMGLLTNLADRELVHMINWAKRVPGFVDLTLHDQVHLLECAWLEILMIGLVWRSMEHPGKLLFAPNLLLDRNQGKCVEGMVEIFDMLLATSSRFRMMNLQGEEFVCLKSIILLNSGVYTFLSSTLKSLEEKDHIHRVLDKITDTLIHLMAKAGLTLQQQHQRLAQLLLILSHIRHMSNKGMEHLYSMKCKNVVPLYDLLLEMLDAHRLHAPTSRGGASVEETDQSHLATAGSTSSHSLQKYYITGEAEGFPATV

HT-22 cells = experiment: Cytoprotection of HT-22 cells against glutamate exposure (calcein AM cell viability); type: cell-based, Mouse; conditions: for neuroprotection: at 10 μM and 1 μM; for cytoprotection (result in words): tested at 0.01-10 μM; for activity compared with 4c and 4e: at 10 μM
Procedure: Mouse clonal hippocampal HT-22 cells were cultured in DMEM media supplemented with 10% fetal bovine serum under standard cell culture conditions. All wells in the 96 well culture plate contained approximately 5,000 HT-22 cells as determined by a Neubauer hemacytometer and the cells were incubated for 24 hrs before the compounds were added. The estradiol derivatives were purified recrystallization or column chromatography and were free from (1) as determined by HPLC. All agents were dissolved in absolute ethanol and diluted, with the culture media, to a final concentration of 0.01 μM; 0.1 μM; 1.0 μM; and 10 μM in their respective wells. The cells were further incubated for 24 hrs before sodium glutamate in a solution of phosphate buffer was added. Cell viability was quantified 2 hrs later by the calcein AM assay (Green, P. S., E. J.Perez, T. Calloway and J. W. Simpkins: (2000), Journal of Neurocytology, Vol. 29, pp. 419-423) in a phosphate buffer solution.
ANOVA was used to determine the significance of differences among groups. Comparison between groups were done using the Tukey test. Ap<0.05 was considered significant.

ERβ = ERβ (Homo sapiens, UniProt Q92731); experiment: Estrogen receptor binding, displacement of radiolabeled 17β-estradiol; design: dose or concentration left out as unconfirmed; conditions: human cloned ERβ, 17β-estradiol assigned 1; <0.01 = no evidence of binding
Chain of ERβ (Q92731 whole entry): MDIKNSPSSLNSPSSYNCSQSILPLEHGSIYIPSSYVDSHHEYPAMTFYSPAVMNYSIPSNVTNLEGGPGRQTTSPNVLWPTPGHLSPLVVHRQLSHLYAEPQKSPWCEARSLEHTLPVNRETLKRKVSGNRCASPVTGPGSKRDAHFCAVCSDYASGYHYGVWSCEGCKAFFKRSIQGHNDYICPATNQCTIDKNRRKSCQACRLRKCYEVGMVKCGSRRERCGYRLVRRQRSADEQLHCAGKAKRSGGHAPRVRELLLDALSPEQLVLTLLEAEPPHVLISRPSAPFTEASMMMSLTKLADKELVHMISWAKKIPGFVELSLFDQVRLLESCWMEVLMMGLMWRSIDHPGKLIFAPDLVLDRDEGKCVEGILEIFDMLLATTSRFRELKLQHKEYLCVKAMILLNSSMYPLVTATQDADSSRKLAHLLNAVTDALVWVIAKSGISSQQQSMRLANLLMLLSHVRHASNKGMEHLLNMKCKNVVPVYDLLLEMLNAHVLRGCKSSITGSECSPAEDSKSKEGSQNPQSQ

Row | SMILES | ERα BINDING (Relative to E2) (ERα) | melting point [°C] | cytoprotection (result in words) (HT-22 cells) | also measured
1 | CCCCCCCCO[C@H]1CC[C@H]2[C@@H]3CCc4cc(O)ccc4[C@H]3CC[C@]12C [Compound 4f, 17β-Octyloxyestra-1,3,5(10)-trien-3-ol] | <0.01 |  |  | neuroprotection (HT-22 cells): neuroprotective to a similar extent; ERβ BINDING (Relative to E2) (ERβ): <0.01
2 | CCO[C@H]1CC[C@H]2[C@@H]3CCc4cc(O)ccc4[C@H]3CC[C@]12C [Compound 4b, 17β-Ethoxyestra-1,3,5(10)-trien-3-ol] | <0.01 |  |  | 
3 | CCCCCCCCOc1ccc2c(c1)CC[C@@H]1[C@@H]2CC[C@]2(C)[C@@H](O)CC[C@@H]12 [Compound 5c, 3-Octyloxyestra-1,3,5(10)-trien-17β-ol] |  | 64 to 66 | ineffective | 
4 | CCCO[C@H]1CC[C@H]2[C@@H]3CCc4cc(O)ccc4[C@H]3CC[C@]12C [Compound 4c, 17β-Propoxyestra-1,3,5(10)-trien-3-ol] | <0.01 |  |  | 
5 | C[C@]12CC[C@@H]3c4ccc(O)cc4CC[C@H]3[C@@H]1CC[C@@H]2O [Compound 1, 17β-estradiol, reference compound] |  |  | effective only at 10 μM | activity compared with 4c and 4e (HT-22 cells): less active then 4c and 4e
6 | CCCCOc1ccc2c(c1)CC[C@@H]1[C@@H]2CC[C@]2(C)[C@@H](O)CC[C@@H]12 [Compound 5b, 3-Butoxyestra-1,3,5(10)-trien-17β-ol] |  | 86 to 88 | ineffective | 
7 | CCCCO[C@H]1CC[C@H]2[C@@H]3CCc4cc(O)ccc4[C@H]3CC[C@]12C [Compound 4d, 17β-Butoxyestra-1,3,5(10)-trien-3-ol] |  | 77 to 81 |  | 
8 | CCCCCCO[C@H]1CC[C@H]2[C@@H]3CCc4cc(O)ccc4[C@H]3CC[C@]12C [Compound 4e, 17β-Hexyloxyestra-1,3,5(10)-trien-3-ol] |  |  | active | neuroprotection (HT-22 cells): neuroprotective to a similar extent
9 | CO[C@H]1CC[C@H]2[C@@H]3CCc4cc(O)ccc4[C@H]3CC[C@]12C [Compound 4a, 17β-Methoxyestra-1,3,5(10)-trien-3-ol] |  |  | inactive; also recorded: ineffective even at 10 μM | activity compared with 4c and 4e (HT-22 cells): less active then 4c and 4e; cytoprotection (result in words) (HT-22 cells; listed as 17β-methylestradiol): effective only at 10 μM
